This is an account of results in US7666898B2, “Multivalent indole compounds and use thereof as phospholipase-A2 inhibitors” (Ilypsa, Inc., priority 2005, dated 2010).

Chain of human pancreatic secreted PLA2 (hps PLA2) (P04054 23-148): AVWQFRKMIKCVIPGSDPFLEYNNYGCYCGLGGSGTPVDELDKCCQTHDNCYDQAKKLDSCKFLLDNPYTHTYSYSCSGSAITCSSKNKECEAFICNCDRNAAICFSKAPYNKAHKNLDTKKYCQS

The first data set concerns the target human pancreatic secreted PLA2 (hps PLA2) (Homo sapiens, UniProt P04054).
Assay: not given
Conditions: reported literature data; cited from earlier work.
With `Cc1c(CC(N)=O)c2c(OCCCC(=O)O)cccc2n1Cc1ccccc1`, the half-inhibitory concentration (IC50) (as a rule, the concentration at which inhibition is half-maximal) is 3.66 µM.

Turning to `CCc1c(CC(N)=O)c2cc(OCCCP(=O)(O)O)ccc2n1Cc1cccc(Cl)c1`, the IC50 was 46.2 µM.

In the case of `Cc1c(CC(N)=O)c2cc(CCCC(=O)O)ccc2n1Cc1ccccc1`, the IC50 is 94 µM.

On to `CCc1c(CC(N)=O)c2cc(SCCCC(=O)O)ccc2n1Cc1ccccc1`, for which the half-inhibitory concentration (IC50) was 16 µM.

For `Cc1c(C(=O)C(N)=O)c2c(/C=C/C(=O)O)cccc2n1Cc1ccccc1`, the IC50 was greater than 100 µM.

Take `Cc1c(C(=O)C(N)=O)c2c(CCC(=O)O)cccc2n1Cc1ccccc1`: the IC50 was greater than 100 µM.

Test system in a further data set: not listed separately
Briefly: Toxicology, 5-day daily oral gavage. The format is in vivo, mice. The settings on record: 5 consecutive days. The source says:
The purpose of this study was to evaluate the toxicity of indole and indole-related Test Articles when administered daily via oral gavage to mice for 5 consecutive days.
Assessment of toxicity was based on mortality; clinical signs, body weight, food consumption, clinical pathology, and macroscopic pathology data.
`Cc1c(C(=O)C(N)=O)c2c(OCC(=O)O)cccc2n1CCCCCCCCCCCCOc1ccccc1-c1ccccc1OCCCCCCCCCCCCn1c(C)c(C(=O)C(N)=O)c2c(OCC(=O)O)cccc21` [ILY-v-37, [3-Aminooxalyl-1-(12-{2′-[12-(3-aminooxalyl-4-carboxymethoxy-2-methyl-indol-1-yl)-dodecyloxy]-biphenyl-2-yloxy}-dodecyl)-2-methyl-1H-indol-4-yloxy]-acetic acid]: the “clinical pathology data, treated groups vs vehicle control group” value was “no differences”.
